US9079913B2, “Spiro-oxindole MDM2 antagonists” (The Regents of the University of Michigan, priority 2009, dated 2015)
Entries after “also recorded” stand apart in the source; their conditions may differ. Like-named read-outs stand apart in the source and are kept apart here.

How the values were obtained:
[1] = Animal weight in SJSA-1 xenograft studies; format: in vivo, C.B-17 SCID mice; conditions: SJSA-1 xenograft mice
Experimental: The size of tumors growing in the mice was measured in two dimensions using calipers. Tumor volume (mm^3)=(A×B2)/2 where A and B are the tumor length and width (in mm), respectively. During treatment, tumor volume and body weight was measured three times a week. After the treatment was stopped, tumor volume (FIGS. 7, 9, 11, and 36) and body weight (FIGS. 8, 10, 12, and 37) was measured at least once a week. Mice were kept for an additional 60 days for further observation of tumor growth and toxicity.
Before treatment began, tumors were allowed to grow to 60-140 mm^3 in volume, at which point the blood vessel supplies to the tumor should have been established. Mice with tumors within acceptable size range were randomized into treatment groups of 8 mice for experimental compounds and 10 mice for the Control group. Experimental compounds were given orally, once per day for 2-3 weeks. The Control group received vehicle alone (10% PEG 400: 3% Cremophor: 87% PBS).

[2] = system: Isogenic HCT-116 colon cancer cell lines; assay: cells; format: cell-based; conditions: Homo sapiens;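 further: cells grown in 96-well plates in McCoy's 5A medium with 10% FBS, exposed to compound for 4 days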
Experimental: Cells were seeded in 96-well flat bottom cell culture plates at a density of 2−3×10^3 cells/well with compounds and incubated for 4 days.

[3] = In vitro microsomal stability, human; format: in vitro ADME
[4] = system: cancer cell lines with wild-type p53 / mutated or deleted p53 (ATCC); assay: Cell growth assay (WST-8), other cancer cell lines; format: cell-based; conditions: for IC50: Homo sapiens
[5] = In vitro microsomal stability, rat; format: in vitro ADME
[6] = Pharmacokinetic studies in rats; format: in vivo, rat; conditions: for CLz / Vd: rat, IV, 5 mg/kg, plasma, parent compound; for Vd: iv, read-out: Vz
Experimental: Pharmacokinetic studies on MDM2 inhibitors were carried out in rat. For comparison, the MDM2 inhibitor, AT-219, was also studied.

SJSA-1 xenograft tumors = assay: In vivo efficacy, SJSA-1 xenograft model (tumor volume); parameters: species or system C.B-17 SCID mice; conditions: for % Tumor Growth Inhib. T/C Control 750 mm^3 D24: Exp. No. 2, SJSA-1 xenograft; for % Tumor Growth Inhib. T/C Control 750 mm^3 D29: Exp. No. 3, SJSA-1 xenograft
Experimental: SJSA-1 tumor cells were harvested with Trypsin (0.05%)-EDTA (0.53 mM) (GIBCO™, Invitrogen Corp.), growth medium added and cells placed on ice. A cell sample was mixed 1:1 with Trypan Blue (GIBCO™, Invitrogen Corp.) and counted on a hemocytometer to determine the number of live/dead cells. Cells were washed once with 1×PBS (GIBCO™, Invitrogen Corp.) and resuspended in PBS. For Matrigel injections, after washing in PBS, cells are resuspended in an ice cold mixture of 1:1 PBS and Matrigel (BD Biosciences, Invitrogen Corp.) for a final Matrigel protein concentration of 5 mg/ml. SJSA-1 tumors were inoculated into C.B-17 SCID mice at 5×10^6 cells in 0.1 ml with Matrigel. Cells were injected s.c. into the flank region of each mouse using a 27 gauge needle.
The size of tumors growing in the mice was measured in two dimensions using calipers. Tumor volume (mm^3)=(A×B2)/2 where A and B are the tumor length and width (in mm), respectively. During treatment, tumor volume and body weight was measured three times a week. […] Mice were kept for an additional 60 days for further observation of tumor growth and toxicity.

[7] = LNCaP, read-out: LNCAP (p53 wild-type) IC50
[8] = SJSA-1, read-out: SJSA-1 (p53 wild-type) IC50
[9] = HCT-116, read-out: HCT-116 (p53 wild-type) IC50

Compound: CC(C)(C)C[C@H]1N[C@@H](C(=O)NC2CCC(O)CC2)[C@H](c2cccc(Cl)c2F)[C@@]12C(=O)Nc1cc(Cl)ccc12 (stereo partly shown) [MI-773]
- weight loss in the animals (in words) [1]: without significant weight loss
- IC50 ([2]; HCT-116, read-out: HCT-116 (p53-/-) IC50, Table 19A, HCT-116 p53-/-, cell growth): > 10 µM
- IC50 ([2]; HCT-116, read-out: HCT-116 (p53 wild-type) IC50, Table 19A, HCT-116 p53 wild-type, cell growth): < 1 µM
- microsomal stability (in words) ([3]; human liver microsomes): more stable than MI-219
- % of compound remaining when incubated in human liver microsomes with NADPH ([3]; human liver microsomes, NADPH, 0 min): 100.00%
- % of compound remaining when incubated in human liver microsomes with NADPH ([3]; human liver microsomes, NADPH, 5 min): 83.70%
- % of compound remaining when incubated in human liver microsomes with NADPH ([3]; human liver microsomes, NADPH, 10 min): 82.97%
- % of compound remaining when incubated in human liver microsomes with NADPH ([3]; human liver microsomes, NADPH, 15 min): 69.38%
- % of compound remaining when incubated in human liver microsomes with NADPH ([3]; human liver microsomes, NADPH, 30 min): 52.36%
- % of compound remaining when incubated in human liver microsomes with NADPH ([3]; human liver microsomes, NADPH, 45 min): 42.57%
- % of compound remaining when incubated in human liver microsomes with NADPH ([3]; human liver microsomes, NADPH, 60 min): 28.77%
- half-life ([3]; human, liver microsomes, human liver microsomes with NADPH): 31.5 min
- IC50 [4, 7]: < 1 µM
- IC50 ([4]; PC-3, read-out: PC-3 (deleted p53) IC50): > 10 µM
- IC50 [4, 8]: < 1 µM
- % of compound remaining when incubated in rat liver microsomes with NADPH ([5]; rat liver microsomes, NADPH, 0 min): 100.00%
- % of compound remaining when incubated in rat liver microsomes with NADPH ([5]; rat liver microsomes, NADPH, 5 min): 81.32%
- % of compound remaining when incubated in rat liver microsomes with NADPH ([5]; rat liver microsomes, NADPH, 10 min): 60.00%
- % of compound remaining when incubated in rat liver microsomes with NADPH ([5]; rat liver microsomes, NADPH, 15 min): 56.58%
- % of compound remaining when incubated in rat liver microsomes with NADPH ([5]; rat liver microsomes, NADPH, 30 min): 46.11%
- % of compound remaining when incubated in rat liver microsomes with NADPH ([5]; rat liver microsomes, NADPH, 45 min): 41.18%
- % of compound remaining when incubated in rat liver microsomes with NADPH ([5]; rat liver microsomes, NADPH, 60 min): 33.26%
- half-life ([5]; rat, liver microsomes, rat liver microsomes with NADPH): 17.3 min
- oral bioavailability / oral pharmacokinetics in rats (in words) ([6]; oral dosing, rats): good oral bioavailability; also recorded: high oral bioavailability
- CLz [6]: 16.7 mL/min/kg
- Vd [6]: 3 L/kg
- pharmacokinetic profile (in words) ([6]; rats, intravenous and oral routes of dosing): improved PK parameters over MI-219
- % Tumor Growth Inhib. T/C Control 750 mm^3 D24 (SJSA-1 xenograft tumors; PO 100 mg/kg): 3.2%
- % Tumor Growth Inhib. T/C Control 750 mm^3 D29 (SJSA-1 xenograft tumors; PO 30 mg/kg): 24.3%
- % Tumor Growth Inhib. T/C Control 750 mm^3 D29 (SJSA-1 xenograft tumors; PO 100 mg/kg): 1.2%
- in vivo efficacy (in words) (SJSA-1 xenograft tumors; SJSA-1 xenograft, oral once per day 2-3 weeks): good in vivo efficacy

Compound: CC(C)(C)C[C@H]1N[C@@H](C(=O)N[C@H]2C[C@@](C)(O)C2)[C@H](c2cccc(Cl)c2F)[C@@]12C(=O)Nc1cc(Cl)ccc12 [MI-519-64]
- weight loss in the animals (in words) [1]: without significant weight loss
- IC50 ([2]; HCT-116, read-out: HCT-116 (p53-/-) IC50): > 10 µM
- IC50 [2, 9]: < 1 µM
- % of compound remaining when incubated in human liver microsomes with NADPH ([3]; 0 min): 100%
- % of compound remaining when incubated in human liver microsomes with NADPH ([3]; 5 min): 83.66%
- % of compound remaining when incubated in human liver microsomes with NADPH ([3]; 10 min): 80.61%
- % of compound remaining when incubated in human liver microsomes with NADPH ([3]; 15 min): 65.86%
- % of compound remaining when incubated in human liver microsomes with NADPH ([3]; 30 min): 61.26%
- % of compound remaining when incubated in human liver microsomes with NADPH ([3]; 45 min): 55.9%
- % of compound remaining when incubated in human liver microsomes with NADPH ([3]; 60 min): 53.21%
- cell growth inhibition (in words) [4]: more potent than its epimer MI-519-65; also recorded: effectively inhibit cancer cell growth
- IC50 [4, 7]: < 1 µM
- IC50 [4, 8]: < 1 µM
- % of compound remaining when incubated in rat liver microsomes with NADPH ([5]; 0 min): 100%
- % of compound remaining when incubated in rat liver microsomes with NADPH ([5]; 5 min): 71.95%
- % of compound remaining when incubated in rat liver microsomes with NADPH ([5]; 10 min): 64.86%
- % of compound remaining when incubated in rat liver microsomes with NADPH ([5]; 15 min): 48.47%
- % of compound remaining when incubated in rat liver microsomes with NADPH ([5]; 30 min): 43.38%
- % of compound remaining when incubated in rat liver microsomes with NADPH ([5]; 45 min): 41.19%
- % of compound remaining when incubated in rat liver microsomes with NADPH ([5]; 60 min): 43.03%
- CLz [6]: 30 mL/min/kg
- Vd [6]: 9 L/kg
- % Tumor Growth Inhib. T/C Control 750 mm^3 D29 (SJSA-1 xenograft tumors; PO 30 mg/kg): 20.7%
- % Tumor Growth Inhib. T/C Control 750 mm^3 D29 (SJSA-1 xenograft tumors; PO 100 mg/kg): 5.3%

Compound: CC(C)(C)C[C@H]1N[C@@H](C(=O)N[C@H]2C[C@@H](O)C2)[C@H](c2cccc(Cl)c2F)[C@@]12C(=O)Nc1cc(Cl)ccc12 (stereo in doubt) [MI-519-63]
- weight loss in the animals (in words) [1]: without significant weight loss
- IC50 [2, 9]: 2 µM
- % of compound remaining when incubated in human liver microsomes with NADPH ([3]; 0 min): 100.00%
- % of compound remaining when incubated in human liver microsomes with NADPH ([3]; 5 min): 77.75%
- % of compound remaining when incubated in human liver microsomes with NADPH ([3]; 10 min): 59.66%
- % of compound remaining when incubated in human liver microsomes with NADPH ([3]; 15 min): 50.42%
- % of compound remaining when incubated in human liver microsomes with NADPH ([3]; 30 min): 31.21%
- % of compound remaining when incubated in human liver microsomes with NADPH ([3]; 45 min): 26.74%
- % of compound remaining when incubated in human liver microsomes with NADPH ([3]; 60 min): 21.5%
- microsomal stability (in words) ([3]; human liver microsomes): comparable microsomal stability to MI-219
- IC50 [4, 7]: 2.3 µM
- IC50 [4, 8]: 2.1 µM
- % of compound remaining when incubated in rat liver microsomes with NADPH ([5]; 0 min): 100%
- % of compound remaining when incubated in rat liver microsomes with NADPH ([5]; 5 min): 66.01%
- % of compound remaining when incubated in rat liver microsomes with NADPH ([5]; 10 min): 53.79%
- % of compound remaining when incubated in rat liver microsomes with NADPH ([5]; 15 min): 46.44%
- % of compound remaining when incubated in rat liver microsomes with NADPH ([5]; 30 min): 29.41%
- % of compound remaining when incubated in rat liver microsomes with NADPH ([5]; 45 min): 27.72%
- % of compound remaining when incubated in rat liver microsomes with NADPH ([5]; 60 min): 23.28%
- microsomal stability (in words) ([5]; rat liver microsomes): comparable microsomal stability to MI-219
- % Tumor Growth Inhib. T/C Control 750 mm^3 D24 (SJSA-1 xenograft tumors; PO 100 mg/kg): 0.0%
